Consider 6 molecules from US10537590B2, “Cyclic dinucleotide compounds” (BOEHRINGER INGELHEIM INTERNATIONAL GMBH, priority 2016, dated 2020).

Data set [1] can be described thus: Mouse PK, plasma concentration after intravenous administration. The settings on record: male C57BL/6NRj mouse, 10 μmol/Kg, mean of duplicate experiments. In kind it is in vivo. How it is done:
The mouse PK of compounds of the invention was determined using the following method:
The compound was dissolved in a solution of physiological NaCl and administered intravenously to male C57BL/6NRj mouse at a dose of 10 μmol/Kg. A 20 μL blood sample was collected at 0.25, 0.5, 0.75, 1 and 2 h by taking ETDA as anticoagulant. Blood plasma was generated by centrifugation and stored at −20° C. The compound concentration was determined by LC-MS/MS.

The target in data set [2] is Human STING (hSTING, residues 155-341, wild-type sequence) (Homo sapiens, UniProt Q86WV6, H232R). Put plainly: Differential Scanning Fluorimetry (DSF), hSTING Tm shift. The settings on record: 100 uM test compound, 3 uM target protein; for hSTING Tm shift: Sodium Salt. In kind it is binding. The text has this:
The dissociation curves were processed in Bio-Rad CFX Manager. • Peak type was set to “negative”.

Data set [3] deals with human STING protein in THP1-Blue ISG cells (Homo sapiens, UniProt Q86WV6, G230A/H232R/R293Q/R71H). Put plainly: In vitro cytokine induction, THP1-Blue ISG IRF-inducible SEAP reporter assay. The settings on record: 24 hours incubation, OD at 620 nm. Background: Reporter assays use an easily measured gene product as a stand-in for the process of interest.
Sequence of human STING protein in THP1-Blue ISG cells (Q86WV6 whole entry R71H/G230A/H232R/R293Q): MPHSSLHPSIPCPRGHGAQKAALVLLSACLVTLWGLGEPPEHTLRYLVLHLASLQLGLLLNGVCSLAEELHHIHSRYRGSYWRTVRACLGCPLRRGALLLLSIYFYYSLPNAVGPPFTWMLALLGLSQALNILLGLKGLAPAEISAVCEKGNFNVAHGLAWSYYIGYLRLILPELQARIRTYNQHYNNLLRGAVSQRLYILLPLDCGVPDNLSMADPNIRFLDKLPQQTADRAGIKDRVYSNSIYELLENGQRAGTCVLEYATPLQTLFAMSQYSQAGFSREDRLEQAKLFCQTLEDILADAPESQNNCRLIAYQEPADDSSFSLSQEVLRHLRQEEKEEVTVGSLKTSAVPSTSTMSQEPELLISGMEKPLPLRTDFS
Description: In Vitro Cytokine Induction
Using Invivogen's QUANTI-Blue™ colorimetric enzyme assay and a suitable optical density (OD) reader the activity of SEAP can be detected and quantified.
Measurements of SEAP activity were performed in THP1-Blue ISG cells stably expressing the human STING protein and the IRF-inducible SEAP reporter construct. Cells were cultivated for expansion in RPM11640 medium with 10% fetal calf serum, 50 μg/ml Penicillin-Streptomycin, 100 μg/ml Zeocin, and 100 μg/ml Normocin in a 37°, 95% humidity and 5% CO2 incubator. Assay-ready cells were stored as frozen stocks In preparation for the assay, the cells thawed in Zeocin-/Normocin-free medium and were distributed into the assay plates with a density of 15000 cells/15 μL per well. Compounds were prepared by an 8 or 16 point serial dilution in 50% aqueous DMSO and a final dilution step into medium to ensure a final DMSO concentration of 0.5% in the assay. 5 μL of diluted compounds plus 5 μL medium were added to the plates, followed by a 24 hours incubation at 37° C.
At the day of the assay, 75 μl per well of Quanti-Blue reagent was added to all wells of the plate and the plate was incubated another 30 minutes at 37° C. The OD at 620 nm was measured on the EnVision reader (PerkinElmer).

Counter-ions that a name gives are not always drawn.

Sequence of Human STING (hSTING, residues 155-341, wild-type sequence) (Q86WV6 155-341 H232R): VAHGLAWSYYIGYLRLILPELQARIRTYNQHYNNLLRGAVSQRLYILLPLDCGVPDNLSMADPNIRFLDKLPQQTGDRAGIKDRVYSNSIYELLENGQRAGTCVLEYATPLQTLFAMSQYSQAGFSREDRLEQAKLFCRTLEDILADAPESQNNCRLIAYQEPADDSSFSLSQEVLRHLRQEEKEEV

In the case of `Nc1ncnc2c1ncn2[C@@H]1O[C@@H]2COP(=O)(S)O[C@H]3C(n4cnc5c(=O)[nH]ncc54)O[C@H](COP(=O)(S)O[C@H]2[C@H]1O)[C@H]3O` (single isomer, unassigned) [Example 1.1, Cyclic (imidazopyridazinon-β-D-ribofuranoside-(2′→5′)-phosphorothioate-adenosine-(3′→5′)-phosphorothioate)], in data set [1], the “compound concentration in plasma, T = 0.25 h” value is 3080 nM; the “compound concentration in plasma, T = 0.5 h” value is 1200 nM; the “compound concentration in plasma, T = 0.75 h” value is given as 550 nM; the “compound concentration in plasma, T = 1 h” value amounted to 249 nM. For the same molecule, the “compound concentration in plasma, T = 2 h” value in data set [1] is 120 nM.

Take `Nc1ncnc2c1ncn2[C@@H]1O[C@@H]2COP(=O)(S)O[C@@H]3[C@H](O)[C@@H](COP(=O)(S)O[C@H]2[C@H]1F)O[C@H]3n1cnc2c(=O)[nH]ncc21` (single isomer, unassigned) [Example 2.1, Cyclic (imidazopyridazinon-β-D-ribofuranoside-(2′→5′)-phosphorothioate-2′-F-2′-deoxyadenosine-(3′→5′)-phosphorothioate]: in data set [1], the “compound concentration in plasma, T = 0.25 h” value is given as 1970 nM; the “compound concentration in plasma, T = 0.5 h” value came to 699 nM; the “compound concentration in plasma, T = 0.75 h” value was 401 nM; the “compound concentration in plasma, T = 1 h” value is on record as 241 nM. For the same molecule, the “compound concentration in plasma, T = 2 h” value in data set [1] is recorded as 78 nM.

In the case of `Nc1ncnc2c1ncn2[C@@H]1O[C@]23CO[C@@H]1[C@@H]2OP(=O)(S)OC[C@H]1O[C@@H](n2cnc4c(=O)[nH]ncc42)[C@H](OP(=O)(S)OC3)[C@@H]1O` (single isomer, unassigned) [Example 3.1, Cyclic (imidazopyridazinon-β-D-ribofuranoside-(2′→5′)-phosphorothioate-LNA-adenine-(3′→5′)-phosphorothioate), Sodium Salt], the “hSTING Tm shift” value in data set [2] came out at 17.0 °C. Also, in data set [1], the “compound concentration in plasma, T = 0.25 h” value was 2710 nM; the “compound concentration in plasma, T = 0.5 h” value was determined as 1280 nM; the “compound concentration in plasma, T = 0.75 h” value is 595 nM; the “compound concentration in plasma, T = 1 h” value worked out at 260 nM. For the same molecule, the “compound concentration in plasma, T = 2 h” value in data set [1] amounted to 111 nM. In addition, in data set [3], the response was half-maximal at 0.17 µM (EC50).

In the case of `Nc1ncnc2c1ncn2[C@@H]1O[C@]23CO[C@@H]1[C@@H]2OP(=O)(S)OC[C@H]1O[C@@H](n2cnc4c(=O)[nH]ncc42)[C@H](OP(=O)(S)OC3)[C@@H]1O` (single isomer, unassigned) [Example 3.2, Cyclic (imidazopyridazinon-β-D-ribofuranoside-(2′→5′)-phosphorothioate-LNA-adenine-(3′→5′)-phosphorothioate), Sodium Salt], in data set [2], the ΔTm (usually the shift of the melting midpoint relative to a reference) at 100 µM was 9 °C. Further, a half-maximal response in data set [3] (EC50) required 8.5 µM.

Take `O=c1[nH]ncc2c1ncn2[C@@H]1O[C@@H]2COP(=O)(S)O[C@H]3[C@@H](O)[C@H](n4cnc5cncnc54)O[C@@H]3COP(=O)(S)O[C@@H]1[C@@H]2O` (single isomer, unassigned) [Example 4.1, Cyclic (imidazopyridazinon-β-D-ribofuranoside-(2′→5′)-phosphorothioate-purine-β-D ribofuranoside-(3′→5′)-phosphorothioate), Sodium Salt]: the thermal shift (ΔTm) at 100 µM in data set [2] amounted to 13.9 °C. In data set [3], the concentration giving a half-maximal response (EC50) (commonly the concentration at which the effect is half-maximal) amounted to 0.19 µM.

Regarding `O=c1[nH]ncc2c1ncn2[C@@H]1O[C@@H]2COP(=O)(S)O[C@H]3[C@@H](O)[C@H](n4cnc5cncnc54)O[C@@H]3COP(=O)(S)O[C@@H]1[C@@H]2O` (single isomer, unassigned) [Example 4.2, Cyclic (imidazopyridazinon-β-D-ribofuranoside-(2′→5′)-phosphorothioate-purine-β-D ribofuranoside-(3′→5′)-phosphorothioate), Sodium Salt], in data set [2], the “hSTING Tm shift” value is 9.0 °C. In data set [3], this molecule showed an EC50 of 6.2 µM.
